# Molecular target: T1, BTK (Homo sapiens, UniProt Q06187)
# T1 construct: The GM01501.3 cell line endogenously expresses BTK with a HiBiT fusion tag via CRISPR knock-in at its C-terminal region; endogenous in cells; host or cells: GM01501.3 (GM01501 cells engineered by CRISPR knock-in of HiBiT at the BTK locus)
# Assay: BTK degradation assay using the HiBiT Method (Nano-Glo HiBiT Lytic Assay, GM01501.3 cells)
# Format: cell-based
# Conditions: HiBiT Degradation on GM01501.3 BTK @ 6 hours
# Summary of the method: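 CRISPR knock-in GM01501.3 cells expressing endogenous BTK with C-terminal HiBiT tag, treated 6 h at 37 °C with compounds, 11-point half-log titration from 10 μM top, duplicates. Remaining BTK quantified by Nano-Glo HiBiT lytic luminescence versus DMSO controls; DC50 reported.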
# T1 sequence (Q06187 whole entry, the tested form may be a part): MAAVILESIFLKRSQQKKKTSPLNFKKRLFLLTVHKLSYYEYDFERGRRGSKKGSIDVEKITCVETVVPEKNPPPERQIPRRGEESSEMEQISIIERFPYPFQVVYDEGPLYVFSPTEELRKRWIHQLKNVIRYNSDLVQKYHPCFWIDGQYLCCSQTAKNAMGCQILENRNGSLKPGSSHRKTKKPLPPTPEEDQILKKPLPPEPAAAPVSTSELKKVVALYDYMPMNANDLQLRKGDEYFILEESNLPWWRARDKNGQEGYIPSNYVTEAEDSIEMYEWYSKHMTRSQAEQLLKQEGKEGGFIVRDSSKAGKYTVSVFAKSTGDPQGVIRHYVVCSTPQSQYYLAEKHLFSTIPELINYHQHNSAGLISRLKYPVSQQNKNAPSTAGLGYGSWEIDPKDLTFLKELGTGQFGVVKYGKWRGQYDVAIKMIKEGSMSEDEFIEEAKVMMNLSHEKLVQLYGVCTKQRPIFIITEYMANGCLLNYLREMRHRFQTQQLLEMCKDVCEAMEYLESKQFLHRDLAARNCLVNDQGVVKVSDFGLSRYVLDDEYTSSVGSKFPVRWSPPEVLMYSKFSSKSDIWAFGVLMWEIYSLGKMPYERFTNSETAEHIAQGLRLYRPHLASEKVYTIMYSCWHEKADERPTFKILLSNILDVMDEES
row,DC50 [nM],SMILES
1,< 100,"Cn1nc(N2CCC(=O)NC2=O)c2ccc(C3CCN(Cc4ccc(-c5cc6nccc(-c7ccc(CNC(=O)c8noc(C(C)(C)C)n8)c(F)c7)n6n5)cc4F)CC3)cc21 [Example 166, 5-tert-butyl-N-[[4-[2-[4-[[4-[3-(2,4-dioxohexahydropyrimidin-1-yl)-1-methyl-indazol-6-yl]-1-piperidyl]methyl]-3-fluoro-phenyl]pyrazolo[1,5-a]pyrimidin-7-yl]-2-fluoro-phenyl]methyl]-1,2,4-oxadiazole-3-carboxamide]"
2,< 100,"Cc1cc(-c2ncnn3cc(CCC(F)(F)CN4CCC(c5ccc(C6CCC(=O)NC6=O)cc5)CC4)cc23)ccc1CNC(=O)c1noc(C(C)(C)C)n1 (stereo not drawn) [Example 168, 5-tert-butyl-N-[[4-[6-[4-[4-[4-(2,6-dioxo-3-piperidyl)phenyl]-1-piperidyl]-3,3-difluoro-butyl]pyrrolo[2,1-f][1,2,4]triazin-4-yl]-2-methyl-phenyl]methyl]-1,2,4-oxadiazole-3-carboxamide]"
3,100 to 500,"CC(C)(C)c1nc(C(=O)NCc2ccc(-c3ncnn4cc(CCC(F)(F)CN5CCC(c6ccc(C7CCC(=O)NC7=O)cc6)CC5)cc34)cc2F)no1 (stereo not drawn) [Example 169, 5-tert-butyl-N-[[4-[6-[4-[4-[4-(2,6-dioxo-3-piperidyl)phenyl]-1-piperidyl]-3,3-difluoro-butyl]pyrrolo[2,1-f][1,2,4]triazin-4-yl]-2-fluoro-phenyl]methyl]-1,2,4-oxadiazole-3-carboxamide]"
4,< 100,"CC(C)(C)c1nc(C(=O)NCc2ccc(-c3ncnn4cc(CCC(F)CN5CCC(c6ccc(NC7CCC(=O)NC7=O)cc6)CC5)cc34)cc2F)no1 (stereo not drawn) [Example 170, 5-tert-butyl-N-[[4-[6-[4-[4-[4-[(2,6-dioxo-3-piperidyl)amino]phenyl]-1-piperidyl]-3-fluoro-butyl]pyrrolo[2,1-f][1,2,4]triazin-4-yl]-2-fluoro-phenyl]methyl]-1,2,4-oxadiazole-3-carboxamide]"
5,< 100,"Cc1cc(-c2ncnn3cc(CCC[C@H](F)CN4CCC(c5ccc(C6CCC(=O)NC6=O)cc5)CC4)cc23)ccc1CNC(=O)c1noc(C(C)(C)C)n1 (stereo partly drawn) [Example 171, 5-tert-butyl-N-[[4-[6-[(4S)-5-[4-[4-(2,6-dioxo-3-piperidyl)phenyl]-1-piperidyl]-4-fluoro-pentyl]pyrrolo[2,1-f][1,2,4]triazin-4-yl]-2-methyl-phenyl]methyl]-1,2,4-oxadiazole-3-carboxamide]"
6,100 to 500,"Cc1cc(-c2ncnn3cc(N4CCN(C(=O)C5CCN(C(=O)c6ccc(OC7CCC(=O)NC7=O)cc6)C5)CC4)cc23)ccc1CNC(=O)c1noc(C(C)(C)C)n1 (stereo not drawn) [Example 172, 5-(tert-butyl)-N-(4-(6-(4-(1-(4-((2,6-dioxopiperidin-3-yl)oxy)benzoyl)pyrrolidine-3-carbonyl)piperazin-1-yl)pyrrolo[2,1-f][1,2,4]triazin-4-yl)-2-methylbenzyl)-1,2,4-oxadiazole-3-carboxamide]"
7,100 to 500,"Cc1cc(-c2ncnn3cc(N4CCN(C(=O)CCCCNC(=O)c5ccc(OC6CCC(=O)NC6=O)cc5)CC4)cc23)ccc1CNC(=O)c1noc(C(C)(C)C)n1 (stereo not drawn) [Example 173, 5-(tert-butyl)-N-(4-(6-(4-(5-(4-((2,6-dioxopiperidin-3-yl)oxy)benzamido)pentanoyl)piperazin-1-yl)pyrrolo[2,1-f][1,2,4]triazin-4-yl)-2-methylbenzyl)-1,2,4-oxadiazole-3-carboxamide]"
8,< 100,"Cc1cc(-c2ncnn3cc(N4CCN(C(=O)C5(CNC(=O)c6ccc(OC7CCC(=O)NC7=O)cc6)CC5)CC4)cc23)ccc1CNC(=O)c1noc(C(C)(C)C)n1 (stereo not drawn) [Example 174, 5-(tert-butyl)-N-(4-(6-(4-(1-((4-((2,6-dioxopiperidin-3-yl)oxy)benzamido)methyl)cyclopropane-1-carbonyl)piperazin-1-yl)pyrrolo[2,1-f][1,2,4]triazin-4-yl)-2-methylbenzyl)-1,2,4-oxadiazole-3-carboxamide]"
9,100 to 500,"Cc1cc(-c2ncnn3cc(N4CCN(C(=O)CC5CC(NC(=O)c6ccc(OC7CCC(=O)NC7=O)cc6)C5)CC4)cc23)ccc1CNC(=O)c1noc(C(C)(C)C)n1 (stereo not drawn) [Example 175, 5-(tert-butyl)-N-(4-(6-(4-(2-(3-(4-((2,6-dioxopiperidin-3-yl)oxy)benzamido)cyclobutyl)acetyl)piperazin-1-yl)pyrrolo[2,1-f][1,2,4]triazin-4-yl)-2-methylbenzyl)-1,2,4-oxadiazole-3-]"
10,100 to 500,"Cc1cc(-c2ncnn3cc(N4CCN(C(=O)CC5CCCCN5C(=O)c5ccc(OC6CCC(=O)NC6=O)cc5)CC4)cc23)ccc1CNC(=O)c1noc(C(C)(C)C)n1 (stereo not drawn) [Example 176, 5-(tert-butyl)-N-(4-(6-(4-(2-(1-(4-((2,6-dioxopiperidin-3-yl)oxy)benzoyl)piperidin-2-yl)acetyl)piperazin-1-yl)pyrrolo[2,1-f][1,2,4]triazin-4-yl)-2-methylbenzyl)-1,2,4-oxadiazole-3-carboxamide]"
11,> 1000,"Cc1cc(-c2ncnn3cc(N4CCN(C(=O)c5cn(CCNC(=O)c6ccc(OC7CCC(=O)NC7=O)cc6)nn5)CC4)cc23)ccc1CNC(=O)c1noc(C(C)(C)C)n1 (stereo not drawn) [Example 177, 5-(tert-butyl)-N-(4-(6-(4-(1-(2-(4-((2,6-dioxopiperidin-3-yl)oxy)benzamido)ethyl)-1H-1,2,3-triazole-4-carbonyl)piperazin-1-yl)pyrrolo[2,1-f][1,2,4]triazin-4-yl)-2-methylbenzyl)-1,2,4-oxadiazole-3-carboxamide]"
12,< 100,"Cc1cc(-c2ncnn3cc(N4CCN(C(=O)C5CC6(CCN(C(=O)c7ccc(OC8CCC(=O)NC8=O)cc7)C6)C5)CC4)cc23)ccc1CNC(=O)c1noc(C(C)(C)C)n1 (stereo not drawn) [Example 178, 5-(tert-butyl)-N-(4-(6-(4-(6-(4-((2,6-dioxopiperidin-3-yl)oxy)benzoyl)-6-azaspiro[3.4]octane-2-carbonyl)piperazin-1-yl)pyrrolo[2,1-f][1,2,4]triazin-4-yl)-2-methylbenzyl)-1,2,4-oxadiazole-3-carboxamide]"
13,100 to 500,"Cc1cc(-c2ncnn3cc(N4CCN(C(=O)c5ccc(CNC(=O)c6ccc(OC7CCC(=O)NC7=O)cc6)nc5)CC4)cc23)ccc1CNC(=O)c1noc(C(C)(C)C)n1 (stereo not drawn) [Example 179, 5-(tert-butyl)-N-(4-(6-(4-(6-((4-((2,6-dioxopiperidin-3-yl)oxy)benzamido)methyl)nicotinoyl)piperazin-1-yl)pyrrolo[2,1-f][1,2,4]triazin-4-y1)-2-methylbenzyl)-1,2,4-oxadiazole-3-carboxamide]"
14,< 100,"Cc1cc(-c2ncnn3cc(N4CCN(C(=O)CCCCCCCCNC(=O)c5ccc(OC6CCC(=O)NC6=O)cc5)CC4)cc23)ccc1CNC(=O)c1noc(C(C)(C)C)n1 (stereo not drawn) [Example 180, 5-(tert-butyl)-N-(4-(6-(4-(9-(4-((2,6-dioxopiperidin-3-yl)oxy)benzamido)nonanoyl)piperazin-1-yl)pyrrolo[2,1-f][1,2,4]triazin-4-yl)-2-methylbenzyl)-1,2,4-oxadiazole-3-carboxamide]"

row,SMILES,DC50 [nM]
1,"Cn1nc(N2CCC(=O)NC2=O)c2ccc(C3CCN(Cc4ccc(-c5cc6nccc(-c7ccc(CNC(=O)N8CC(OC(C)(C)C)C8)c(F)c7)n6n5)cc4F)CC3)cc21 [Example 167, 3-tert-butoxy-N-[[4-[2-[4-[[4-[3-(2,4-dioxohexahydropyrimidin-1-yl)-1-methyl-indazol-6-yl]-1-piperidyl]methyl]-3-fluoro-phenyl]pyrazolo[1,5-a]pyrimidin-7-yl]-2-fluoro-phenyl]methyl]azetidine-1-carboxamide]",< 100
